The values that follow come from US10570116B2, “1,4-dicarbonyl-piperidyl derivatives” (Merck Patent GmbH, priority 2015, dated 2020).

One experiment has as its system Tankyrases. As to the kind of experiment: Measurement of cellular inhibition of Tankyrase (Axin2 level, Luminex based assay, DLD1 cells). It is filed as cell-based. The settings on record: increase of Axin2 level, 24 hours, read-out: EC50 [M] TNKS cellular assay.
A further experiment deals with TNKS2 (Homo sapiens (Human), UniProt Q9H2K2). As to the kind of experiment: biochemical. It is filed as biochemical. The note with it: GST-tagged Tnks-2 (873-1166 aa); read-out: IC50 [M] TNKS2 ELISA. In general terms: An ELISA detects its analyte on a solid surface through an enzyme-linked reagent.
The target in another experiment is TNKS1 (Homo sapiens (Human), UniProt O95271). As to the kind of experiment: biochemical. It is filed as biochemical. The settings on record: GST-tagged Tnks-1 (1023-1327 aa); read-out: IC50 [M] TNKS1 ELISA.
The target in a further experiment is PARP-1 (Homo sapiens (Human), UniProt P09874). As to the kind of experiment: Biochemical activity testing of PARP-1: autoparsylation assay (HTRF). The settings on record: His-tagged Parp-1, autoparsylation HTRF. Background: In TR-FRET formats the signal depends on donor and acceptor labels being close together.
Chain of PARP-1 (P09874 whole entry): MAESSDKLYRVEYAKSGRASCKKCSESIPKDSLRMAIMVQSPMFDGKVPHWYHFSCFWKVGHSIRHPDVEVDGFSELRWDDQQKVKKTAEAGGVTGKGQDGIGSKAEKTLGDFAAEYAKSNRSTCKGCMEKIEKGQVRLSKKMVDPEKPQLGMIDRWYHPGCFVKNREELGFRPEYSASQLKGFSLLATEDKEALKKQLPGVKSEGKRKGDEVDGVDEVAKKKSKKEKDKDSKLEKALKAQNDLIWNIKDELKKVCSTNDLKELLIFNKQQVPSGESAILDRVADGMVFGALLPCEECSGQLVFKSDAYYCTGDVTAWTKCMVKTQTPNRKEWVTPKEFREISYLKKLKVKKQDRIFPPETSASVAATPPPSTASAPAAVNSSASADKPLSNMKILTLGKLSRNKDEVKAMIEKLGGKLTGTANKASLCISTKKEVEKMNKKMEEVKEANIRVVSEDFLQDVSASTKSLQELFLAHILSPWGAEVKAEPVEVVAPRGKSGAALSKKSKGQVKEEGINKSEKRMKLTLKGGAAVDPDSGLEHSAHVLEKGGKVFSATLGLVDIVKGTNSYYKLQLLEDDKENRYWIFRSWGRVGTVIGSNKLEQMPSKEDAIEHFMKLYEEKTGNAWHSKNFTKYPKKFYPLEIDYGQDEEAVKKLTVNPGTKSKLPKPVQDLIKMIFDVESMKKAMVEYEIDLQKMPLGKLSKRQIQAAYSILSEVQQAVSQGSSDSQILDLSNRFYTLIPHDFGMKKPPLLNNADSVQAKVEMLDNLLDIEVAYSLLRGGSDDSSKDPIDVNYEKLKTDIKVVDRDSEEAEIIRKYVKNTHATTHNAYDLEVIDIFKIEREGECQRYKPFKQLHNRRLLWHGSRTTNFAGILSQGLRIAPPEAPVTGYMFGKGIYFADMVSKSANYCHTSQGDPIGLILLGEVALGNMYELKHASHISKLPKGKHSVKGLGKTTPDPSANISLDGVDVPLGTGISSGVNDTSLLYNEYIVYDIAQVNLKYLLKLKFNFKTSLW

In the case of `Cn1cc(C(=O)C2CCN(C(=O)CC(C)(C)Cc3nc4c(ccn4C)c(=O)[nH]3)CC2)cn1` [Compound C17, 2-{2,2-Dimethyl-4-[4-(1-methyl-1H-pyrazole-4-carbonyl)-piperidin-1-yl]-4-oxo-butyl}-7-methyl-3,7-dihydro-pyrrolo[2,3-d]pyrimidin-4-one], in the experiment with Tankyrases, the EC50 was 6.9e-09 M. For the same compound, the IC50 on TNKS2 is 3.3e-10 M; at TNKS1, 4.7e-10 M; against PARP-1, more than 30000 nM.
The corresponding values for `CCn1cc(C(=O)C2CCN(C(=O)CC(C)(C)Cc3nc4c(ccn4C)c(=O)[nH]3)CC2)cn1` [Compound C18, 2-{4-[4-(1-Ethyl-1H-pyrazole-4-carbonyl)-piperidin-1-yl]-2,2-dimethyl-4-oxo-butyl}-7-methyl-3,7-dihydro-pyrrolo[2,3-d]pyrimidin-4-one] are 2.8e-09 M, 3.6e-10 M, 5.8e-10 M and more than 30000 nM.
The corresponding values for `Cn1cc(C(=O)C2CCN(C(=O)CC(C)(C)Cc3nc4c(cnn4C)c(=O)[nH]3)CC2)cn1` [Compound C20, 6-{2,2-Dimethyl-4-[4-(1-methyl-1H-pyrazole-4-carbonyl)-piperidin-1-yl]-4-oxo-butyl}-1-methyl-1,5-dihydro-pyrazolo[3,4-d]pyrimidin-4-one] are 1.9e-08 M, 7.3e-10 M, 9.2e-10 M and more than 30000 nM.
With `COc1ccc(C(=O)C2CCN(C(=O)CC(C)(C)Cc3nc4c(cnn4C)c(=O)[nH]3)CC2)cn1` [Compound C21, 6-{4-[4-(6-Methoxy-pyridine-3-carbonyl)-piperidin-1-yl]-2,2-dimethyl-4-oxo-butyl}-1-methyl-1,5-dihydro-pyrazolo[3,4-d]pyrimidin-4-one], in the experiment on Tankyrases, the concentration giving a half-maximal response (EC50) is 1.6e-08 M. In addition, the figures for the concentration for half-maximal inhibition (IC50) at TNKS2, at TNKS1 and on PARP-1 were 2.1e-09 M, 3.6e-09 M and more than 30000 nM, respectively.
The corresponding values for `COc1ncc(C(=O)C2CCN(C(=O)CC(C)(C)Cc3nc4c(cnn4C)c(=O)[nH]3)CC2)cc1C` [Compound C22, 6-{4-[4-(6-Methoxy-5-methyl-pyridine-3-carbonyl)-piperidin-1-yl]-2,2-dimethyl-4-oxo-butyl}-1-methyl-1,5-dihydro-pyrazolo[3,4-d]pyrimidin-4-one] are 7.9e-09 M, 1.8e-09 M, 2.2e-09 M and more than 30000 nM.
Consider `COc1ccc(C(=O)C2CCN(C(=O)COCc3nc4c(F)cc(F)cc4c(=O)[nH]3)CC2)cn1` [Compound C28, 6,8-Difluoro-2-{2-[4-(6-methoxy-pyridine-3-carbonyl)-piperidin-1-yl]-2-oxo-ethoxymethyl}-3H-quinazolin-4-one], for which the concentration for a half-maximal effect (EC50) in the experiment with Tankyrases came to 1e-07 M. Further, the half-maximal inhibitory concentration (IC50) at TNKS2 was found to be 1.2e-08 M; at TNKS1, 3.4e-08 M.
The corresponding values for `CN(CCc1nc2ccccc2c(=O)[nH]1)C(=O)N1CCC(C(=O)c2cnn(C)c2)CC1` [Compound C31, 4-(1-Methyl-1H-pyrazole-4-carbonyl)-piperidine-1-carboxylic Acid methyl-[2-(4-oxo-3,4-dihydro-quinazolin-2-yl)-ethyl]-amide] are 2.3e-08 M, 2.2e-09 M and 3e-09 M.
The like results for `COC(=O)c1ccc(C(=O)C2CCN(C(=O)CC(C)(C)Cc3nc4ccccc4c(=O)[nH]3)CC2)cc1` [Compound C32, 4-{1-[3,3-Dimethyl-4-(4-oxo-3,4-dihydro-quinazolin-2-yl)-butyryl]-piperidine-4-carbonyl}-benzoic Acid Methyl Ester] were, in that order, 1.1e-07 M, 5.6e-10 M and 6.8e-10 M.
The corresponding values for `CC(C)(CC(=O)N1CCC(C(=O)c2ccc(C(=O)O)cc2)CC1)Cc1nc2ccccc2c(=O)[nH]1` [Compound C33, 4-{1-[3,3-Dimethyl-4-(4-oxo-3,4-dihydro-quinazolin-2-yl)-butyryl]-piperidine-4-carbonyl}-benzoic Acid] are 1.5e-07 M, 4.5e-10 M and 5.1e-10 M.
On to `COC(=O)c1cccc(C(=O)C2CCN(C(=O)CC(C)(C)Cc3nc4ccccc4c(=O)[nH]3)CC2)c1` [Compound C34, 3-{1-[3,3-Dimethyl-4-(4-oxo-3,4-dihydro-quinazolin-2-yl)-butyryl]-piperidine-4-carbonyl}-benzoic Acid Methyl Ester], for which the EC50 with Tankyrases stood at 9.9e-09 M. Further, the half-maximal inhibitory concentration (IC50) at TNKS2 was found to be 5e-10 M; on TNKS1, 4.8e-10 M.
The like results for `COC(=O)c1cccc(C(=O)C2CCN(C(=O)CC(C)(C)Cc3nc4c(C)cccc4c(=O)[nH]3)CC2)c1` [Compound C36, 3-{1-[3,3-Dimethyl-4-(8-methyl-4-oxo-3,4-dihydro-quinazolin-2-yl)-butyryl]-piperidine-4-carbonyl}-benzoic acid methyl ester] were, in that order, 3.4e-09 M, 2.1e-09 M and 7.9e-10 M.
The like results for `COC(=O)c1ccc(C(=O)C2CCN(C(=O)CC(C)(C)Cc3nc4ccccc4c(=O)[nH]3)CC2)cc1C` [Compound C38, 4-{1-[3,3-Dimethyl-4-(4-oxo-3,4-dihydro-quinazolin-2-yl)-butyryl]-piperidine-4-carbonyl}-2-methyl-benzoic Acid Methyl Ester] were, in that order, 9.9e-10 M, 3.2e-10 M and 5.8e-10 M.
The like results for `Cc1cc(C(=O)C2CCN(C(=O)CC(C)(C)Cc3nc4ccccc4c(=O)[nH]3)CC2)ccc1C(=O)O` [Compound C39, 4-{1-[3,3-Dimethyl-4-(4-oxo-3,4-dihydro-quinazolin-2-yl)-butyryl]-piperidine-4-carbonyl}-2-methyl-benzoic Acid] were, in that order, 1.3e-07 M, 6.1e-10 M and 4.3e-10 M.
In the case of `COC(=O)c1ccc(C(=O)C2CCN(C(=O)CC(C)(C)Cc3nc4c(C)cccc4c(=O)[nH]3)CC2)cc1C` [Compound C40, 4-{1-[3,3-Dimethyl-4-(8-methyl-4-oxo-3,4-dihydro-quinazolin-2-yl)-butyryl]-piperidine-4-carbonyl}-2-methyl-benzoic Acid Methyl Ester], the 50% effective concentration (EC50) in the experiment on Tankyrases was determined as 2.9e-09 M. The IC50 turned out to be 4.7e-09 M on TNKS2 and 1.5e-09 M at TNKS1.
The corresponding values for `Cc1cc(C(=O)C2CCN(C(=O)CC(C)(C)Cc3nc4c(C)cccc4c(=O)[nH]3)CC2)ccc1C(=O)O` [Compound C41, 4-{1-[3,3-Dimethyl-4-(8-methyl-4-oxo-3,4-dihydro-quinazolin-2-yl)-butyryl]-piperidine-4-carbonyl}-2-methyl-benzoic Acid] are 1.1e-08 M, 8.8e-10 M and 5.9e-10 M.
The corresponding values for `Cc1cc(F)cc2c(=O)[nH]c(C[C@@H](C)CC(=O)N3CCC(C(=O)c4cccc(C(=O)O)c4)CC3)nc12` [Compound C46, 3-{1-[(R)-4-(6-Fluoro-8-methyl-4-oxo-3,4-dihydro-quinazolin-2-yl)-3-methyl-butyryl]-piperidine-4-carbonyl}-benzoic Acid] are 1e-05 M, 2.8e-09 M and 8.2e-09 M.
The corresponding values for `Cc1cc(F)cc2c(=O)[nH]c(C[C@H](C)CC(=O)N3CCC(C(=O)c4cccc(C(=O)O)c4)CC3)nc12` [Compound C47, 3-{1-[(S)-4-(6-Fluoro-8-methyl-4-oxo-3,4-dihydro-quinazolin-2-yl)-3-methyl-butyryl]-piperidine-4-carbonyl}-benzoic Acid] are 3e-09 M, 2.2e-10 M and 3.5e-10 M.
`CN(C)Cc1ccc(C(=O)C2CCN(C(=O)CC(C)(C)Cc3nc4ccccc4c(=O)[nH]3)CC2)cc1` [Compound C48, 2-{4-[4-(4-Dimethylaminomethyl-benzoyl)-piperidin-1-yl]-2,2-dimethyl-4-oxo-butyl}-3H-quinazolin-4-one]: the EC50 with Tankyrases is 1.3e-07 M. Further, the IC50 at TNKS2 is 5.3e-09 M; on TNKS1, 1.4e-08 M.
The corresponding values for `Cn1cc(C(=O)C2CCN(C(=O)CC(C)(C)Cc3cc4ccccc4c(=O)[nH]3)CC2)cn1` [Compound C49, 3-{2,2-Dimethyl-4-[4-(1-methyl-1H-pyrazole-4-carbonyl)-piperidin-1-yl]-4-oxo-butyl}-2H-isoquinolin-1-one] are 1.3e-09 M, 2.1e-10 M and 3e-10 M.
On to `C[C@H](CC(=O)N1CCC(C(=O)c2cnn(C)c2)CC1)Cc1cc2ccccc2c(=O)[nH]1` [Compound C50, 3-{(S)-2-Methyl-4-[4-(1-methyl-1H-pyrazole-4-carbonyl)-piperidin-1-yl]-4-oxo-butyl}-2H-isoquinolin-1-one], for which the concentration giving a half-maximal response (EC50) in the experiment on Tankyrases is 6.8e-10 M. For the same compound, the IC50 is 2.4e-10 M at TNKS2 and 4.4e-10 M on TNKS1.
The corresponding values for `C[C@@H](CC(=O)N1CCC(C(=O)c2cnn(C)c2)CC1)Cc1cc2ccccc2c(=O)[nH]1` [Compound C51, 3-{(R)-2-Methyl-4-[4-(1-methyl-1H-pyrazole-4-carbonyl)-piperidin-1-yl]-4-oxo-butyl}-2H-isoquinolin-1-one] are 1.2e-08 M, 7.2e-10 M and 1e-09 M.
The like results for `CC(C)(CC(=O)N1CCC(C(=O)c2ccc(C(=O)O)cc2)CC1)Cc1cc2ccccc2c(=O)[nH]1` [Compound C52, 4-{1-[3,3-Dimethyl-4-(1-oxo-1,2-dihydro-isoquinolin-3-yl)-butyryl]-piperidine-4-carbonyl}-benzoic Acid] were, in that order, 8e-08 M, 2.5e-10 M and 3.3e-10 M.
The corresponding values for `CC(C)(CC(=O)N1CCC(C(=O)c2cccc(C(=O)O)c2)CC1)Cc1cc2ccccc2c(=O)[nH]1` [Compound C53, 3-{1-[3,3-Dimethyl-4-(1-oxo-1,2-dihydro-isoquinolin-3-yl)-butyryl]-piperidine-4-carbonyl}-benzoic Acid] are 8.7e-07 M, 6.9e-10 M and 1.1e-09 M.

In general, EC50 refers to the concentration that produces a half-maximal response. For orientation: IC50 means the concentration needed to halve the response being measured.
